Counter-ions that a name gives are not always drawn.

The values below come from patent US20010031760A1, “Method of treating a patient having precancerous lesions with quinazoline derivatives” (priority 1995, published 2001).

By melting point is commonly meant the temperature of the solid-liquid transition. As to `COc1cc2nc(N3CCN(C(=O)c4cocn4)CC3)nc(N)c2cc1OC.Cl`, the melting point was 291 to 294 °C (dec.). Then `COc1cc2nc(N3CCN(C(=O)c4cc(C)no4)CC3)nc(N)c2cc1OC.Cl`, with 263 to 264 °C (dec.); and `COc1cc2nc(N3CCN(C(=O)c4ocnc4C)CC3)nc(N)c2cc1OC.Cl`, with 283.5 to 288 °C (dec.). Then `COc1cc2nc(N3CCN(C(=O)c4cscn4)CC3)nc(N)c2cc1OC.Cl`, with 274 to 277 °C (dec.); and `COc1cc2nc(N3CCN(C(=O)c4cncs4)CC3)nc(N)c2cc1OC.Cl`, with 280 to 281 °C (dec.); and `COc1cc2nc(N3CCN(C(=O)C4CC=CCC4)CC3)nc(N)c2cc1OC` (stereo not drawn) [Example 132, 4-Amino-2-[4-(3-cyclohexenylcarbonyl)-1-piperazinyl]-6,7-dimethoxyquinazoline], with 234 to 236 °C. Then `COc1cc2nc(N3CCN(C(=O)c4nccs4)CC3)nc(N)c2cc1OC.Cl`, with 273 to 276 °C (dec.). Consider `COc1cc2nc(N3CCN(C(=O)c4cnns4)CC3)nc(N)c2cc1OC.Cl`, for which the melting point lay in the range of 295 to 297 °C. Consider `COc1cc2nc(N3CCN(C(=O)c4csnn4)CC3)nc(N)c2cc1OC.Cl`, for which the melting point was 270 °C (dec.). Then `COc1cc2nc(N3CCN(C(=O)C4CCCC4)CC3)nc(NN)c2cc1OC.Cl`, with 282 to 284 °C; and `COc1cc2nc(N3CCN(C(=O)c4ccon4)CC3)nc(N)c2cc1OC.Cl`, with 268 to 273 °C (dec.).

Turning to `COc1cc2nc(N3CCN(C(=O)c4cc(C)on4)CC3)nc(N)c2cc1OC.Cl`, the melting point was 271 to 273 °C (dec.). Then `COc1cc2nc(N3CCN(C(=O)C4CCCC4)CC3)nc(N)c2cc1OC` (as salt: hydrochloride) [Example 127, 4-Amino-2-[4-(cyclopentylcarbonyl)-1-piperazinyl]-6,7-dimethoxyquinazoline], with 279 to 280 °C (dec.); and `COc1cc2nc(N3CCN(C(=O)c4conc4C)CC3)nc(N)c2cc1OC.Cl`, with 300 to 301 °C (dec.); and `COc1cc2nc(N3CCN(C(=O)c4cnoc4)CC3)nc(N)c2cc1OC.Cl`, with 225 to 260 °C (dec.). Turning to `COc1cc2nc(N3CCN(C(=O)c4cnsc4)CC3)nc(N)c2cc1OC.Cl`, the melting point is 286 to 287 °C (dec.).

For the compound `COc1cc2nc(N3CCN(C(=O)c4csc(C)n4)CC3)nc(N)c2cc1OC.Cl`, the melting point is 260 to 263 °C (dec.). The figure for `COc1cc2nc(N3CCN(C(=O)c4coc(C)n4)CC3)nc(N)c2cc1OC.Cl` is 278 to 280 °C (dec.).
